For 25 substances, 3 h FOB score results are on record in the OligoGym collection.

HELM strings list units from the 5' end as sugar, base in round brackets, then linkage (d deoxyribose, r ribose, m 2'-O-methyl, p phosphodiester). Strings are as the collection lists them; they lack the last nucleoside at the 3' end of the tested compound. [moe] = 2'-O-(2-methoxyethyl) (MOE); [sp] = phosphorothioate linkage; [m5C] = 5-methylcytosine

For this data set, the target named is GFAP. The experiment in a line: mouse, dose not given. The note with it: ASO.
Turning to “RNA1{[moe](G)[sp].[moe](T)p.[moe]([m5C])p.[moe](A)p.[moe]([m5C])[sp].d(A)[sp].d(T)[sp].d(T)[sp].d([m5C])[sp].d(A)[sp].d([m5C])[sp].d(T)[sp].d(A)[sp].d(A)[sp].d(T)[sp].[moe](A)p.[moe](T)p.[moe](T)[sp].[moe](T)}$$$$ (last 3' nucleoside missing)”, the 3 h FOB score is 0 score 0-7.
Substance “RNA1{[moe](G)[sp].[moe](T)p.[moe]([m5C])p.[moe](A)p.[moe]([m5C])p.[moe](A)p.d(T)[sp].d(T)[sp].d([m5C])[sp].d(A)[sp].d([m5C])[sp].d(T)[sp].d(A)[sp].d(A)[sp].d(T)[sp].d(A)[sp].[moe](T)p.[moe](T)[sp].[moe](T)}$$$$ (last 3' nucleoside missing)” showed a 3 h FOB score of 0 score 0-7.
In turn, “RNA1{[moe](G)[sp].[moe](T)p.[moe]([m5C])p.[moe](A)p.[moe]([m5C])p.d(A)[sp].d(T)[sp].d(T)[sp].d([m5C])[sp].d(A)[sp].d([m5C])[sp].d(T)[sp].d(A)[sp].d(A)[sp].d(T)[sp].[moe](A)p.[moe](T)p.[moe](T)[sp].[moe](T)}$$$$ (last 3' nucleoside missing)” registered a 3 h FOB score of 0 score 0-7.
Consider “RNA1{[moe](G)[sp].[moe](T)p.[moe]([m5C])p.[moe](A)p.d([m5C])[sp].d(A)[sp].d(T)[sp].d(T)[sp].d([m5C])[sp].d(A)[sp].d([m5C])[sp].d(T)[sp].d(A)[sp].d(A)[sp].[moe](T)p.[moe](A)p.[moe](T)p.[moe](T)[sp].[moe](T)}$$$$ (last 3' nucleoside missing)”, for which the 3 h FOB score came to 0 score 0-7.
For “RNA1{[moe](G)[sp].[moe](T)p.[moe]([m5C])p.[moe](T)p.[moe](G)[sp].d(A)[sp].d(G)[sp].d(T)[sp].d([m5C])[sp].d(T)[sp].d([m5C])[sp].d(A)[sp].d(G)[sp].d(T)[sp].d(T)[sp].[moe](T)p.[moe](T)p.[moe]([m5C])[sp].[moe]([m5C])}$$$$ (last 3' nucleoside missing)” the value was 7 score 0-7; for “RNA1{[moe](G)[sp].[moe](T)p.[moe]([m5C])p.[moe](T)p.[moe](T)[sp].d(T)[sp].d(A)[sp].d(T)[sp].d(T)[sp].d(T)[sp].d(T)[sp].d(T)[sp].d([m5C])[sp].[moe]([m5C])p.[moe](T)p.[moe]([m5C])[sp].[moe](A)}$$$$ (last 3' nucleoside missing)”, 4 score 0-7.
In the case of “RNA1{[moe](G)[sp].[moe](T)p.[moe]([m5C])p.[moe](T)p.[moe](T)[sp].d(T)[sp].d(A)[sp].d(T)[sp].d(T)[sp].d(T)[sp].d(T)[sp].d(T)[sp].d([m5C])[sp].d([m5C])[sp].d(T)[sp].[moe]([m5C])p.[moe](A)p.[moe](G)[sp].[moe]([m5C])}$$$$ (last 3' nucleoside missing)”, the 3 h FOB score came out at 5 score 0-7.
“RNA1{[moe](G)[sp].[moe](T)p.[moe]([m5C])p.[moe](T)p.[moe]([m5C])[sp].d(A)[sp].d(G)[sp].d(T)[sp].d(T)[sp].d(T)[sp].d(T)[sp].d([m5C])[sp].d([m5C])[sp].d(T)[sp].d([m5C])[sp].[moe]([m5C])p.[moe](A)p.[moe](G)[sp].[moe]([m5C])}$$$$ (last 3' nucleoside missing)” yielded a 3 h FOB score of 0 score 0-7.
For “RNA1{[moe](G)[sp].[moe](T)p.[moe]([m5C])p.[moe](T)p.d(T)[sp].d(T)[sp].d(A)[sp].d(T)[sp].d(T)[sp].d(T)[sp].d(T)[sp].d(T)[sp].d([m5C])[sp].d([m5C])[sp].[moe](T)p.[moe]([m5C])p.[moe](A)p.[moe](G)[sp].[moe]([m5C])}$$$$ (last 3' nucleoside missing)” the value was 3 score 0-7.
For “RNA1{[moe](G)[sp].[moe]([m5C])p.[moe](A)p.[moe](A)p.[moe]([m5C])[sp].d(A)[sp].d(G)[sp].d(T)[sp].d(T)[sp].d(T)[sp].d([m5C])[sp].d([m5C])[sp].d(A)[sp].d(T)[sp].d(A)[sp].[moe](A)p.[moe]([m5C])p.[moe](A)[sp].[moe](A)}$$$$ (last 3' nucleoside missing)” the value was 0 score 0-7.
Consider “RNA1{[moe](G)[sp].[moe]([m5C])p.[moe](A)p.[moe](G)p.[moe](T)[sp].d(A)[sp].d(T)[sp].d(T)[sp].d(A)[sp].d([m5C])[sp].d([m5C])[sp].d(T)[sp].d([m5C])[sp].[moe](T)p.[moe](A)p.[moe]([m5C])[sp].[moe](T)}$$$$ (last 3' nucleoside missing)”, for which the 3 h FOB score was found to be 1 score 0-7.
For “RNA1{[moe](G)[sp].[moe]([m5C])p.[moe](A)p.[moe](G)p.[moe](T)p.[moe](A)p.d(T)[sp].d(T)[sp].d(A)[sp].d([m5C])[sp].d([m5C])[sp].d(T)[sp].d([m5C])[sp].d(T)[sp].d(A)[sp].d([m5C])[sp].[moe](T)p.[moe](A)[sp].[moe](G)}$$$$ (last 3' nucleoside missing)” the value was 0 score 0-7; for “RNA1{[moe](G)[sp].[moe]([m5C])p.[moe](A)p.[moe](G)p.[moe]([m5C])[sp].d(A)[sp].d(T)[sp].d(T)[sp].d(T)[sp].d(G)[sp].d(T)[sp].d([m5C])[sp].d(T)[sp].d(T)[sp].d(T)[sp].[moe](A)p.[moe](T)p.[moe](T)[sp].[moe](T)}$$$$ (last 3' nucleoside missing)”, 4 score 0-7; for “RNA1{[moe](G)[sp].[moe]([m5C])p.[moe](A)p.[moe](G)p.d(T)[sp].d(A)[sp].d(T)[sp].d(T)[sp].d(A)[sp].d([m5C])[sp].d([m5C])[sp].d(T)[sp].d([m5C])[sp].d(T)[sp].[moe](A)p.[moe]([m5C])p.[moe](T)p.[moe](A)[sp].[moe](G)}$$$$ (last 3' nucleoside missing)”, 1 score 0-7.
Consider “RNA1{[moe](G)[sp].[moe]([m5C])p.[moe](A)p.[moe](T)p.[moe](T)[sp].d(T)[sp].d(G)[sp].d(T)[sp].d([m5C])[sp].d(T)[sp].d(T)[sp].d(T)[sp].d(A)[sp].[moe](T)p.[moe](T)p.[moe](T)[sp].[moe](T)}$$$$ (last 3' nucleoside missing)”, for which the 3 h FOB score amounted to 1 score 0-7.
For “RNA1{[moe](G)[sp].[moe]([m5C])p.[moe](A)p.[moe](T)p.[moe](T)[sp].d(T)[sp].d(G)[sp].d(T)[sp].d([m5C])[sp].d(T)[sp].d(T)[sp].d(T)[sp].d(A)[sp].d(T)[sp].d(T)[sp].[moe](T)p.[moe](T)p.[moe](T)[sp].[moe]([m5C])}$$$$ (last 3' nucleoside missing)” the value was 0 score 0-7; for “RNA1{[moe](G)[sp].[moe]([m5C])p.[moe](A)p.[moe](T)p.[moe](T)p.[moe](T)p.d(G)[sp].d(T)[sp].d([m5C])[sp].d(T)[sp].d(T)[sp].d(T)[sp].d(A)[sp].d(T)[sp].d(T)[sp].d(T)[sp].[moe](T)p.[moe](T)[sp].[moe]([m5C])}$$$$ (last 3' nucleoside missing)”, 1 score 0-7.
The substance “RNA1{[moe](G)[sp].[moe]([m5C])p.[moe](A)p.[moe]([m5C])p.[moe](A)[sp].d(G)[sp].d(T)[sp].d(T)[sp].d([m5C])[sp].d([m5C])[sp].d([m5C])[sp].d(A)[sp].d(G)[sp].d(A)[sp].d(T)[sp].[moe](A)p.[moe]([m5C])p.[moe](T)[sp].[moe]([m5C])}$$$$ (last 3' nucleoside missing)” yielded a 3 h FOB score of 0 score 0-7.
“RNA1{[moe](G)[sp].[moe]([m5C])p.[moe](A)p.[moe]([m5C])p.[moe](A)p.[moe](G)p.d(T)[sp].d(T)[sp].d([m5C])[sp].d([m5C])[sp].d([m5C])[sp].d(A)[sp].d(G)[sp].d(A)[sp].d(T)[sp].d(A)[sp].[moe]([m5C])p.[moe](T)[sp].[moe]([m5C])}$$$$ (last 3' nucleoside missing)” came in with a 3 h FOB score of 0 score 0-7.
With “RNA1{[moe](G)[sp].[moe]([m5C])p.[moe](G)p.[moe](A)p.[moe](G)[sp].d([m5C])[sp].d(G)[sp].d(G)[sp].d(A)[sp].d(G)[sp].d(G)[sp].d([m5C])[sp].d([m5C])[sp].d(T)[sp].d(G)[sp].[moe](G)p.[moe](G)p.[moe](T)[sp].[moe](G)}$$$$ (last 3' nucleoside missing)”, the 3 h FOB score was found to be 6 score 0-7.
For “RNA1{[moe](G)[sp].[moe]([m5C])p.[moe](G)p.[moe](A)p.[moe](T)[sp].d(G)[sp].d(G)[sp].d(A)[sp].d(G)[sp].d([m5C])[sp].d([m5C])[sp].d(T)[sp].d([m5C])[sp].d(A)[sp].d(G)[sp].[moe](G)p.[moe](G)p.[moe](A)[sp].[moe](T)}$$$$ (last 3' nucleoside missing)” the value was 7 score 0-7; for “RNA1{[moe](G)[sp].[moe]([m5C])p.[moe](T)p.[moe](T)p.[moe](T)[sp].d(T)[sp].d(G)[sp].d(A)[sp].d(G)[sp].d(A)[sp].d(T)[sp].d(A)[sp].d(T)[sp].[moe]([m5C])p.[moe](T)p.[moe](T)[sp].[moe](G)}$$$$ (last 3' nucleoside missing)”, 3 score 0-7.
For “RNA1{[moe](G)[sp].[moe]([m5C])p.[moe](T)p.[moe](T)p.[moe](T)[sp].d(T)[sp].d(G)[sp].d(A)[sp].d(G)[sp].d(A)[sp].d(T)[sp].d(A)[sp].d(T)[sp].d([m5C])[sp].d(T)[sp].[moe](T)p.[moe](G)p.[moe](T)[sp].[moe](G)}$$$$ (last 3' nucleoside missing)” the value was 2 score 0-7; for “RNA1{[moe](G)[sp].[moe]([m5C])p.[moe](T)p.[moe](T)p.[moe](T)p.[moe](T)p.d(G)[sp].d(A)[sp].d(G)[sp].d(A)[sp].d(T)[sp].d(A)[sp].d(T)[sp].d([m5C])[sp].d(T)[sp].d(T)[sp].[moe](G)p.[moe](T)[sp].[moe](G)}$$$$ (last 3' nucleoside missing)”, 2 score 0-7.
For “RNA1{[moe](G)[sp].[moe]([m5C])p.[moe](T)p.[moe](T)p.[moe](T)p.[moe](T)p.d(G)[sp].d([m5C])[sp].d([m5C])[sp].d([m5C])[sp].d([m5C])[sp].d([m5C])[sp].d(T)[sp].d(G)[sp].d(T)[sp].d(A)[sp].[moe](G)p.[moe](T)[sp].[moe](G)}$$$$ (last 3' nucleoside missing)” the value was 3 score 0-7.
